Laboratory results from patent US11702422B2, “Imidazopyridazines as modulators of IL-17” (Janssen Pharmaceutica NV, priority 2020, dated 2023).

What was measured:
[1] = test system: IL-17A-induced G-CSF production in human normal keratinocyte (NHK); experiment: NHK Assay: IL-17A-induced G-CSF production in human normal keratinocytes; type: cell-based; conditions: Homo sapiens, Keratinocyte, 24 h, adult normal human keratinocytes, IL-17A 5 ng/mL, simple average if tested more than once
How it was run: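 Titrated compound plus recombinant human IL-17A (pre-incubated 1 h, rt) were applied to adult human keratinocytes at 5 ng/mL cytokine, 0.2% DMSO. Cultures ran 24 h at 37° C, and supernatant G-CSF was measured by HTRF to derive IC50.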

[2] = target: IL-17A(FLAG-Tagged): IL-17RA(His-Tagged) (Homo sapiens, UniProt Q16552, K93Q); experiment: IL-17A(FLAG-Tagged): IL-17RA(His-Tagged) Binding Disruption Eu-HTRF Assay; conditions: IL-17A/IL-17RA binding disruption, simple average if tested more than once
Chain of UniProt Q16552 (Q16552 with tags, fused parts or gaps K93Q): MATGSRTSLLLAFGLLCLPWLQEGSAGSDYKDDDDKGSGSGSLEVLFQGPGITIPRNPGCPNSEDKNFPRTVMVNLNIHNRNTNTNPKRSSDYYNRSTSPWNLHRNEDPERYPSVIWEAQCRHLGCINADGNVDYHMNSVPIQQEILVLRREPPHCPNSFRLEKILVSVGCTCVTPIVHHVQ
How it was run: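 IC50 comes from a one-site competition fit of the HTRF 665/620 nm ratio. Compound dilutions (2-fold, 22 points) were held 1 h rt with FLAG-tagged IL-17A dimer, then His-tagged IL-17RA plus Eu-cryptate anti-FLAG and D2 anti-His antibodies were added for 2 h rt.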

| Compound | IC50 [1] | IC50 [2] |
| --- | --- | --- |
| O=C(CCC(F)(F)F)N[C@@H](c1cnn2cc([C@@H](NC(=O)c3cccnc3)C3CCC(F)(F)CC3)nc2c1)C1CC1 [Example 192, N—((S)-(7-((R)-Cyclopropyl(4,4,4-trifluorobutanamido)methyl)imidazo[1,2-b]pyridazin-2-yl)(4,4-difluorocyclohexyl)methyl)nicotinamide] | 1.2 µM | 0.24 µM |
| O=C(CCC(F)(F)F)N[C@@H](c1cnn2cc([C@@H](NC(=O)c3cccnc3C3CC3)C3CCC(F)(F)CC3)nc2c1)C1CC1 [Example 193, 2-Cyclopropyl-N—((S)-(7-((R)-cyclopropyl(4,4,4-trifluorobutanamido)methyl)imidazo[1,2-b]pyridazin-2-yl)(4,4-difluorocyclohexyl)methyl)nicotinamide] | 1.3 µM | 0.5 µM |
| O=C(CCC(F)(F)F)N[C@@H](c1cnn2cc([C@@H](NC(=O)c3ccnc(C(F)(F)F)c3)C3CCC(F)(F)CC3)nc2c1)C1CC1 [Example 194, N—((S)-(7-((R)-Cyclopropyl(4,4,4-trifluorobutanamido)methyl)imidazo[1,2-b]pyridazin-2-yl)(4,4-difluorocyclohexyl)methyl)-2-(trifluoromethyl)isonicotinamide] | 1.6 µM | 0.14 µM |
| O=C(CCC(F)(F)F)N[C@@H](c1cnn2cc([C@@H](NC(=O)c3ccncc3F)C3CCC(F)(F)CC3)nc2c1)C1CC1 [Example 195, N—((S)-(7-((R)-Cyclopropyl(4,4,4-trifluorobutanamido)methyl)imidazo[1,2-b]pyridazin-2-yl)(4,4-difluorocyclohexyl)methyl)-3-fluoroisonicotinamide] | 1.6 µM | 0.58 µM |
| COc1ccnc(C(=O)N[C@H](c2cn3ncc([C@H](NC(=O)CCC(F)(F)F)C4CC4)cc3n2)C2CCC(F)(F)CC2)c1 [Example 196, N—((S)-(7-((R)-Cyclopropyl(4,4,4-trifluorobutanamido)methyl)imidazo[1,2-b]pyridazin-2-yl)(4,4-difluorocyclohexyl)methyl)-4-methoxypicolinamide] | 1.7 µM | 0.48 µM |
| O=C(CCC(F)(F)F)N[C@@H](c1cnn2cc([C@@H](NC(=O)c3cc(OCC(F)F)ccn3)C3CCC(F)(F)CC3)nc2c1)C1CC1 [Example 197, N—((S)-(7-((R)-Cyclopropyl(4,4,4-trifluorobutanamido)methyl)imidazo[1,2-b]pyridazin-2-yl)(4,4-difluorocyclohexyl)methyl)-4-(2,2-difluoroethoxy)picolinamide] | 1.7 µM | 0.3 µM |
| O=C(CCC(F)(F)F)N[C@@H](c1cnn2cc([C@@H](NC(=O)c3cc(C(F)(F)F)ccn3)C3CCC(F)(F)CC3)nc2c1)C1CC1 [Example 198, N—((S)-(7-((R)-Cyclopropyl(4,4,4-trifluorobutanamido)methyl)imidazo[1,2-b]pyridazin-2-yl)(4,4-difluorocyclohexyl)methyl)-4-(trifluoromethyl)picolinamide] | 1.8 µM | 0.41 µM |
| O=C(CCC(F)(F)F)N[C@@H](c1cnn2cc([C@@H](NC(=O)c3cc(C(F)F)ncn3)C3CCC(F)(F)CC3)nc2c1)C1CC1 [Example 199, N—((S)-(7-((R)-Cyclopropyl(4,4,4-trifluorobutanamido)methyl)imidazo[1,2-b]pyridazin-2-yl)(4,4-difluorocyclohexyl)methyl)-6-(difluoromethyl)pyrimidine-4-carboxamide] | 2 µM | 0.23 µM |
| Cc1ncccc1C(=O)N[C@H](c1cn2ncc([C@H](NC(=O)CCC(F)(F)F)C3CC3)cc2n1)C1CCC(F)(F)CC1 [Example 200, N—((S)-(7-((R)-Cyclopropyl(4,4,4-trifluorobutanamido)methyl)imidazo[1,2-b]pyridazin-2-yl)(4,4-difluorocyclohexyl)methyl)-2-methylnicotinamide] | 2.2 µM | 0.76 µM |
| O=C(CCC(F)(F)F)N[C@@H](c1cnn2cc([C@@H](NC(=O)c3cccc(OCC(F)F)n3)C3CCC(F)(F)CC3)nc2c1)C1CC1 [Example 201, N—((S)-(7-((R)-Cyclopropyl(4,4,4-trifluorobutanamido)methyl)imidazo[1,2-b]pyridazin-2-yl)(4,4-difluorocyclohexyl)methyl)-6-(2,2-difluoroethoxy)picolinamide] | 2.2 µM | 0.47 µM |
| O=C(CCC(F)(F)F)N[C@@H](c1cnn2cc([C@@H](NC(=O)c3cc(C(F)(F)F)ncn3)C3CCC(F)(F)CC3)nc2c1)C1CC1 [Example 202, N—((S)-(7-((R)-Cyclopropyl(4,4,4-trifluorobutanamido)methyl)imidazo[1,2-b]pyridazin-2-yl)(4,4-difluorocyclohexyl)methyl)-6-(trifluoromethyl)pyrimidine-4-carboxamide] | 2.3 µM | 0.44 µM |
| O=C(CCC(F)(F)F)N[C@@H](c1cnn2cc([C@@H](NC(=O)c3cccc(OCC(F)(F)F)n3)C3CCC(F)(F)CC3)nc2c1)C1CC1 [Example 203, N—((S)-(7-((R)-Cyclopropyl(4,4,4-trifluorobutanamido)methyl)imidazo[1,2-b]pyridazin-2-yl)(4,4-difluorocyclohexyl)methyl)-6-(2,2,2-trifluoroethoxy)picolinamide] | 2.7 µM | 0.19 µM |
| O=C(CCC(F)(F)F)N[C@@H](c1cnn2cc([C@@H](NC(=O)c3cncnc3)C3CCC(F)(F)CC3)nc2c1)C1CC1 [Example 204, N—((S)-(7-((R)-Cyclopropyl(4,4,4-trifluorobutanamido)methyl)imidazo[1,2-b]pyridazin-2-1)(4,4-difluorocyclohexyl)methyl)pyrimidine-5-carboxamide] | 3.3 µM | 0.32 µM |
| CC(C)c1cccc(C(=O)N[C@H](c2cn3ncc([C@H](NC(=O)CCC(F)(F)F)C4CC4)cc3n2)C2CCC(F)(F)CC2)n1 [Example 205, N—((S)-(7-((R)-Cyclopropyl(4,4,4-trifluorobutanamido)methyl)imidazo[1,2-b]pyridazin-2-yl)(4,4-difluorocyclohexyl)methyl)-6-isopropylpicolinamide] | 3.7 µM | 0.39 µM |
| Cc1ccnc(C(=O)N[C@H](c2cn3ncc([C@H](NC(=O)CCC(F)(F)F)C4CC4)cc3n2)C2CCC(F)(F)CC2)c1 [Example 206, N—((S)-(7-((R)-Cyclopropyl(4,4,4-trifluorobutanamido)methyl)imidazo[1,2-b]pyridazin-2-yl)(4,4-difluorocyclohexyl)methyl)-4-methylpicolinamide] | 4 µM | 0.54 µM |
| O=C(CCC(F)(F)F)N[C@@H](c1cnn2cc([C@@H](NC(=O)c3ccncn3)C3CCC(F)(F)CC3)nc2c1)C1CC1 [Example 207, N—((S)-(7-((R)-Cyclopropyl(4,4,4-trifluorobutanamido)methyl)imidazo[1,2-b]pyridazin-2-yl)(4,4-difluorocyclohexyl)methyl)pyrimidine-4-carboxamide] | 8.4 µM | 1.8 µM |
| N#Cc1ccccc1C(=O)N[C@H](c1cn2ncc([C@H](NC(=O)CCC(F)(F)F)C3CC3)cc2n1)C1CCC(F)(F)CC1 [Example 208, 2-Cyano-N—((S)-(7-((R)-cyclopropyl(4,4,4-trifluorobutanamido)methyl)imidazo[1,2-b]pyridazin-2-yl)(4,4-difluorocyclohexyl)methyl)benzamide] | > 20 µM | 5.3 µM |
| Cc1ccncc1C(=O)N[C@H](c1cn2ncc([C@H](NC(=O)CCC(F)(F)F)C3CC3)cc2n1)C1CCC(F)(F)CC1 [Example 209, N—((S)-(7-((R)-Cyclopropyl(4,4,4-trifluorobutanamido)methyl)imidazo[1,2-b]pyridazin-2-yl)(4,4-difluorocyclohexyl)methyl)-4-methylnicotinamide] | > 20 µM | 1.4 µM |
| O=C(CCC(F)(F)F)N[C@@H](c1cnn2cc([C@@H](NC(=O)c3cncc(C(F)(F)F)n3)C3CCC(F)(F)CC3)nc2c1)C1CC1 [Example 210, N—((S)-(7-((R)-Cyclopropyl(4,4,4-trifluorobutanamido)methyl)imidazo[1,2-b]pyridazin-2-yl)(4,4-difluorocyclohexyl)methyl)-6-(trifluoromethyl)pyrazine-2-carboxamide] | > 20 µM | 0.62 µM |
| COc1nccc(C(=O)N[C@H](c2cn3ncc([C@H](NC(=O)CCC(F)(F)F)C4CC4)cc3n2)C2CCC(F)(F)CC2)n1 [Example 211, N—((S)-(7-((R)-Cyclopropyl(4,4,4-trifluorobutanamido)methyl)imidazo[1,2-b]pyridazin-2-_yl)(4,4-difluorocyclohexyl)methyl)-2-methoxypyrimidine-4-carboxamide] | > 20 µM | 4.3 µM |
| Cc1ccnc(C(=O)N[C@H](c2cn3ncc([C@H](NC(=O)CCC(F)(F)F)C4CC4)cc3n2)C2CCC(F)(F)CC2)n1 [Example 212, N—((S)-(7-((R)-Cyclopropyl(4,4,4-trifluorobutanamido)methyl)imidazo[1,2-b]pyridazin-2-yl)(4,4-difluorocyclohexyl)methyl)-4-methylpyrimidine-2-carboxamide] | > 20 µM | 13 µM |
| N#Cc1ccc(C(=O)N[C@H](c2cn3ncc([C@H](NC(=O)CCC(F)(F)F)C4CC4)cc3n2)C2CCC(F)(F)CC2)cc1 [Example 213, 4-Cyano-N—((S)-(7-((R)-cyclopropyl(4,4,4-trifluorobutanamido)methyl)imidazo[1,2-b]pyridazin-2-yl)(4,4-difluorocyclohexyl)methyl)benzamide] | 20 µM | 0.45 µM |
